Assays:
[1] = Inhibition of recombinant BCR/FGFR1 (unknown origin) transduced in mouse BaF3 cells incubated for 48 hrs by Cell Titer Glo assay; type: cell-based; conditions: BaF3, 48 h
[2] = Inhibition of recombinant BCR/FGFR4 (unknown origin) transduced in mouse BaF3 cells incubated for 48 hrs by Cell Titer Glo assay; type: cell-based; conditions: BaF3, 48 h
[3] = Inhibition of recombinant BCR/FGFR2 (unknown origin) transduced in mouse BaF3 cells incubated for 48 hrs by Cell Titer Glo assay; type: cell-based; conditions: BaF3, 48 h
[4] = Inhibition of recombinant FGFR3/BAIAP2L1 (unknown origin) transduced in mouse BaF3 cells incubated for 48 hrs by Cell Titer Glo assay; type: cell-based; conditions: BaF3, 48 h
[5] = Stability in human hepatocytes assessed as half life at 1 uM incubated upto 180 mins by LC-MS/MS analysis; type: ADME, cell-based, Hepatocyte

Compound	IC50 [1] [nM]	IC50 [2] [nM]	IC50 [3] [nM]	IC50 [4] [nM]	half-life at 1 µM [5] [h]
C[C@@H](Oc1cc2c(-c3ccc(N4CC5(C4)CN(S(C)(=O)=O)C5)nc3)n[nH]c2cc1Cl)c1c(Cl)cncc1Cl	60	37	35	6.2	–
C[C@@H](Oc1ccc2[nH]nc(-c3ccc(N4CC5(C4)CN(S(C)(=O)=O)C5)nc3)c2c1)c1c(Cl)cccc1Cl	405	–	–	30	–
C[C@@H](Oc1cc2c(-c3ccc(N4CC5(C4)CN(S(C)(=O)=O)C5)nc3)n[nH]c2cc1F)c1c(Cl)cncc1Cl	84	40	56	6.3	> 1.67
C[C@@H](Oc1ccc2[nH]nc(-c3ccc(N4CC5(CCN5S(C)(=O)=O)C4)nc3)c2c1)c1c(Cl)cncc1Cl	290	229	131	18	0.817
C[C@@H](Oc1ccc2[nH]nc(-c3ccc(N4CCC5(CC4)CCS(=O)(=O)C5)nc3)c2c1)c1c(Cl)cncc1Cl	423	577	193	14	1.47
C[C@@H](Oc1ccc2[nH]nc(-c3ccc(N4CC5(CN(C(=O)N(C)C)C5)C4)nc3)c2c1)c1c(Cl)cncc1Cl	234	469	202	17	0.233
C[C@@H](Oc1ccc2[nH]nc(-c3ccc(N4CCC5(CCCO5)CC4)nc3)c2c1)c1c(Cl)cncc1Cl	872	2030	503	97	–
C[C@@H](Oc1ccc2[nH]nc(-c3ccc(N4CCC5(CC4)CN(C)CC(=O)N5)nc3)c2c1)c1c(Cl)cncc1Cl	208	298	154	13	0.6
C[C@@H](Oc1ccc2[nH]nc(-c3ccc(N4CC5(CCCS(=O)(=O)C5)C4)nc3)c2c1)c1c(Cl)cncc1Cl	61	17	33	2.5	1.42
C[C@H](Oc1ccc2[nH]nc(-c3ccc(N4CC5(C4)CN(S(C)(=O)=O)C5)nc3)c2c1)c1c(Cl)cncc1Cl	–	–	–	133	–
C[C@@H](Oc1ccc2[nH]nc(-c3ccc(N4CC5(C4)CS(=O)(=O)C5)nc3)c2c1)c1c(Cl)cncc1Cl	228	300	191	26	–
C[C@@H](Oc1ccc2[nH]nc(-c3ccc(N4CC5(C4)CN(S(C)(=O)=O)C5)nc3)c2c1)c1c(Cl)cnc(F)c1Cl	258	–	–	16	–
C[C@H](Oc1ccc2[nH]nc(-c3ccc(N4CC5(C4)CN(S(C)(=O)=O)C5)nc3)c2c1)c1c(Cl)cnnc1Cl	2000	–	–	179	–
C[C@@H](Oc1ccc2[nH]nc(-c3ccc(Cl)nc3)c2c1)c1c(Cl)cncc1Cl	1040	2200	451	110	–
Cc1ncc(Cl)c([C@@H](C)Oc2ccc3[nH]nc(-c4ccc(N5CC6(C5)CN(S(C)(=O)=O)C6)nc4)c3c2)c1Cl	176	–	47	10	1.07
C[C@@H](Oc1ccc2[nH]nc(-c3ccc(N4CCC5(CCOC5)CC4)nc3)c2c1)c1c(Cl)cncc1Cl	711	835	360	48	–
C[C@@H](Oc1ccc2[nH]nc(/C=C/c3cnn(CCO)c3)c2c1)c1c(Cl)cncc1Cl [LY-2874455]	0.5	2	0.2	0.2	–
CCS(=O)(=O)N1CC2(CN(c3ccc(-c4n[nH]c5ccc(O[C@H](C)c6c(Cl)cncc6Cl)cc45)cn3)C2)C1	390	529	290	40	–
COc1cc2[nH]nc(-c3ccc(N4CC5(C4)CN(S(C)(=O)=O)C5)nc3)c2cc1O[C@H](C)c1c(Cl)cncc1Cl	14	4.5	6.9	0.8	–

Source: ChEMBL document CHEMBL5579895, “Discovery of TYRA-300: First Oral Selective FGFR3 Inhibitor for the Treatment of Urothelial Cancers and Achondroplasia” (J Med Chem, 2024)
